In ChEMBL document CHEMBL5247584, “Design, synthesis and evaluation of fused hybrids with acetylcholinesterase inhibiting and Nrf2 activating functions for Alzheimer's disease” (Eur J Med Chem, 2022):
Activity calls are given as the source filed them. The calls are words filed in the database; no cut-off is given here.

Legend:
[1] = biological target: T1, Nuclear factor erythroid 2-related factor 2 (Rattus norvegicus) (UniProt O54968); assay: Activation of Nrf2 pathway in rat PC-12 cells assessed as fold increase in HO-1 level at 20 uM measured at 2 hrs by qRT-PCR analysis; assay type: cell-based; conditions: PC12, filed as activator
T1 sequence (whole entry): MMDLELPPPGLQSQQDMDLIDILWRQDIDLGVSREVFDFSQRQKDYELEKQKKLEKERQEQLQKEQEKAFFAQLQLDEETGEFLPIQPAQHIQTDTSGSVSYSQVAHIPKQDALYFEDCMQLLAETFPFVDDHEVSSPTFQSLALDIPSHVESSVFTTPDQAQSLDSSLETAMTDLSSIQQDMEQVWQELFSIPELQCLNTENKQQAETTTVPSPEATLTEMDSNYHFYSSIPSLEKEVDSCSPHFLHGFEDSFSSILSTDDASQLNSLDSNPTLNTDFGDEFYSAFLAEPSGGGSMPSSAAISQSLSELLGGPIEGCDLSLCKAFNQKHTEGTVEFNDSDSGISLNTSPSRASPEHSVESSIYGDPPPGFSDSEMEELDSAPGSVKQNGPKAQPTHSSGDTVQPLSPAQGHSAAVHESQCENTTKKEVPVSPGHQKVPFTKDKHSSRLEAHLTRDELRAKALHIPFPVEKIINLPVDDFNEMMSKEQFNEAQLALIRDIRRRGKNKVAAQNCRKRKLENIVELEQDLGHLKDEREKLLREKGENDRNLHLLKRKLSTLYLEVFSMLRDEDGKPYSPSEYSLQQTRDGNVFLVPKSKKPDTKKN

[2] = system: SH-SY5Y; assay: Neuroprotective activity against Abeta1-42-induced human SH-SY5Y cells assessed as inhibition of ROS production preincubated for 24 hrs followed by Abeta1-42 induction and measured after 24 hrs by DCFH-DA staining based fluorescence microscopic anlaysis; assay type: functional, cell-based; conditions: dose 5.0 µM
[3] = biological target: Acetylcholinesterase (Electrophorus electricus, UniProt O42275); assay: Inhibition of electric eel AChE using ATC and BTC iodide as substrate preincubated for 5 mins followed by substrate addition and measured after 2 mins by DTNB reagent based assay
Acetylcholinesterase, sequence (O42275 whole entry): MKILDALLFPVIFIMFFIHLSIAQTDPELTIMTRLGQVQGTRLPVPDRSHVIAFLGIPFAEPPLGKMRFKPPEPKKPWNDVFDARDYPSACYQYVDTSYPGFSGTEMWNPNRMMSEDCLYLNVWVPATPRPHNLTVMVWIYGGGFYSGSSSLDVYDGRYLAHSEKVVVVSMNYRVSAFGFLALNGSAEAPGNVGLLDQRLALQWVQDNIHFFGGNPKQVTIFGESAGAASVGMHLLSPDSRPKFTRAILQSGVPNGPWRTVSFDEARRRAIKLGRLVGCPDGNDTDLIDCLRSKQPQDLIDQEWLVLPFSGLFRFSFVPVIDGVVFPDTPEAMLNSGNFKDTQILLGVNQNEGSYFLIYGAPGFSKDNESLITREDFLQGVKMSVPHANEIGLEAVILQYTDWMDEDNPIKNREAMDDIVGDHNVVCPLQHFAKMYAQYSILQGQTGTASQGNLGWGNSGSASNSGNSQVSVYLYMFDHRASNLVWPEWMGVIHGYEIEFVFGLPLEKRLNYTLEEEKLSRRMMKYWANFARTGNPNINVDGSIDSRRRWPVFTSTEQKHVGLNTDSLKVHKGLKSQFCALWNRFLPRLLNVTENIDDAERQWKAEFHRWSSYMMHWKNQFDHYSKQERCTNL

[4] = biological target: T1, Nuclear factor erythroid 2-related factor 2 (Rattus norvegicus); assay: Activation of Nrf2 pathway in rat PC-12 cells assessed as decrease in Nrf2 accumulation in cytoplasm at 20 uM measured after 1 to 5 hrs by Western blot analysis; assay type: cell-based; conditions: PC12, time 1-5 hrs
[5] = system: SH-SY5Y; assay: Neuroprotective activity against Abeta1-42-induced human SH-SY5Y cells assessed as reduction in cell damage preinubated for 2 hrs followed by Abeta1-42 induction and measured after 24 hrs by MTT assay; assay type: functional, cell-based; conditions: time 26.0 hrs
[6] = system: Mus musculus; assay: Antialzheimer activity against scopolamine-induced cognitive impairment ICR mouse model assessed as confuse escape tracks at 3 mg/kg, po administered once a day for 10 days and measured after 5 to 10 days by Morris water maze test; assay type: functional, organism-based; conditions: time 5-10 day
[7] = biological target: T1, Nuclear factor erythroid 2-related factor 2 (Rattus norvegicus); assay: Activation of Nrf2 pathway in rat PC-12 cells assessed as increase in HO-1 level at 20 uM measured after 6 hrs by Western blot analysis; assay type: cell-based; conditions: PC12, filed as activator
[8] = system: Mus musculus; assay: Neuroprotective activity against Abeta1-42-induced ICR mouse at 20 mg/kg, po by ELISA analysis; assay type: functional, organism-based
[9] = biological target: T1, Nuclear factor erythroid 2-related factor 2 (Rattus norvegicus); assay: Induction of Nrf2 nuclear translocation in rat PC12 cells measured for 12 hrs by FITC staining based confocal microscopic analysis; assay type: cell-based; conditions: filed as activator
[10] = […] in rat PC12 cells assessed as morphological changes; assay type: toxicity, cell-based; conditions: pc-12
[11] = system: Mus musculus; assay: Neuroprotective activity against Abeta1-42-induced ICR mouse at 10 mg/kg, po by ELISA analysis; assay type: functional, organism-based
[12] = biological target: T1, Nuclear factor erythroid 2-related factor 2 (Rattus norvegicus); assay: Activation of Nrf2 pathway in rat PC-12 cells assessed as increase in GCLM level at 20 uM measured after 6 hrs by Western blot analysis; assay type: cell-based; conditions: PC12, filed as activator
[13] = system: Mus musculus; assay: Antiinflammatory activity Abeta1-42-induced against ICR mouse assessed as increase in TGF-beta1 level at 20 mg/kg, po by ELISA analysis; assay type: functional, organism-based

Cc1ccc(-c2noc(-c3cccc(OCC4CCN(Cc5cccc(F)c5)CC4)c3)n2)cn1
fold change (FC) [1]: 4 | Activity [2]: Dose-Dependent Effect | IC50 [3]: 0.07 µM | Activity [4]: inactive | Activity [5]: Active | Activity [6]: Active | Activity [7]: Active | Activity [8]: inactive | Activity [9]: Active | Activity [10]: Non-Toxic | Activity [11]: Active | Activity [12]: Active | Activity [13]: Active
